Measurements reported in patent US20110112100A1, “Hepatitis C Virus Inhibitors” (priority 2009, published 2011).
Counter-ions that a name gives are not always drawn. Like-named read-outs stand apart in the source and are kept apart here.

What was measured:
[1] = tested on: 1a-H77 replicon cells; assay: HCV 1a replicon inhibitory activity (Renilla luciferase); format: cell-based, hepatitis C virus; conditions: Hepatitis C virus, read-out: IC50 value (95% Confidence Intervals) pM Replicon 1A assay
Outline: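 Replicon cells in DMEM + 10% FCS incubated 48 hours at 37° C., 5% CO2 with 1-in-3 serial dilutions of compound prepared in DMSO. Replication read as Renilla luciferase luminescence after lysis. EC50 taken from log concentration-response curves.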

[2] = tested on: 1b (con1) replicon cells; assay: HCV 1b replicon inhibitory activity (luciferase, Britelite Plus); format: cell-based, hepatitis C virus; conditions: Hepatitis C virus, read-out: IC50 value (95% Confidence Intervals) pM Replicon 1B assay
Outline: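 1b (con1) luciferase replicon cells in DMEM + 10% FCS were exposed to 1-in-3 DMSO compound dilutions for 48 h at 37° C, 5% CO2. Luminescence was read 1-15 min after Britelite Plus addition; EC50 came from log concentration-response curves.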

[3] = Compound induced cytotoxicity in HCV replicon cell lines (WST-1 reagent); format: cell-based; conditions: human, 1b (con1) HCV replicon cells; WST-1, 48 hours; in 1 experiment
Experimental: Test compounds were solubilised to 4 mM in 100% DMSO. Dilutions were made to the desired starting concentration in 100% DMSO and then 1 in 3 dilutions made, again in 100% DMSO. 0.5 μl of each sample was added to 384-well assay plates. White Lumitrac (Greiner) plates were used for the 1a and 1b replicon assays and black, clear bottomed (Greiner) plates were used for the WST-1 cytotoxity assay.
1b (con1) replicon cells were resuspended to a concentration of 1.4×10^5 cells/ml by addition of pre-warmed medium (DMEM+10% FCS). 50 μl of this suspension was added to each well of a 384-well assay plate (Black, clear bottomed, Greiner) already containing 0.5 μl of test compound.
All plates were covered with gas permeable seals and incubated at 37° C., 5% CO2 for 48 hours. After 48 hours, 5 μl WST-1 reagent (Roche, 11 644 807 001) was added to each well and the plate returned to the incubator for 3 hours. After this incubation period absorbance was read at 450 nm on an EnVision (Perkin Elmer) plate reader. The half maximal cytotoxic concentration (CC50) values were calculated for each compound by constructing log concentration-response curves.
All of the exemplified compounds have been screened in a cell proliferation assay (WST-1). A majority have […] in at least 2 independent experiments, the exceptions being the compounds of examples 1, 10, 12, 23, 25, 37, 47, 48, 49, 52, 56, 57, 58, 60, 67, 68, 69, 70, 71, 72, 73, 74, 79, 81 and 84 which have CC50 values>2 μM in 1 experiment, and example 20 where the CC50 is reported as >10 nM (in this instance the top concentration tested in the assay was 10 nM).

[4] = geometric mean, 95% confidence intervals in parentheses, 48 hours, medium with 10% FCS

Structure (SMILES) | IC50 ([1]; 48 h) [pM] | IC50 ([2]; 48 h) [pM] | CC50 at 48 h [3] [nM] | IC50 [1, 4] [pM] | IC50 [2, 4] [pM]
COC(=O)N[C@@H](CCS(C)(=O)=O)C(=O)N1CCC[C@H]1c1ncc(-c2ccc3nc(-c4ccc(-c5c[nH]c([C@@H]6CCCN6C(=O)[C@@H](NC(=O)OC)C(C)C)n5)cc4)cnc3c2)[nH]1 [Example 67, methyl [(2S)-1-[(2S)-2-{5-[2-(4-{2-[(2S)-1-{(2S)-2-[(methoxycarbonyl)amino]-3-methylbutanoyl}pyrrolidin-2-yl]-1H-imidazol-4-yl}phenyl)quinoxalin-6-yl]-1H-imidazol-2-yl}pyrrolidin-1-yl]-4-(methylsulfonyl)-1-oxobutan-2-yl]carbamate trifluoroacetic acid salt] | 27.5 | 74.8 | > 2000 | – | –
COC[C@H](NC(=O)OC)C(=O)N1CCC[C@H]1c1ncc(-c2ccc3nc(-c4ccc(-c5c[nH]c([C@@H]6CCCN6C(=O)[C@@H](NC(=O)OC)C(C)C)n5)cc4)cnc3c2)[nH]1 [Example 69, Methyl {(2S)-1-[(2S)-2-{4-[4-(6-{2-[(2S)-1-{(2S)-3-methoxy-2-[(methoxycarbonyl)amino]propanoyl}pyrrolidin-2-yl]-1H-imidazol-5-yl}quinoxalin-2-yl)phenyl]-1H-imidazol-2-yl}pyrrolidin-1-yl]-3-methyl-1-oxobutan-2-yl}carbamate trifluoroacetic acid salt] | 22.3 | 19.6 | > 2000 | – | –
COC(=O)N[C@H](C(=O)N1CCC[C@H]1c1nc(-c2ccc(-c3cnc4cc(-c5cnc([C@@H]6CCCN6C(=O)[C@@H](NC(=O)OC)C(C)(C)C)[nH]5)ccc4n3)cc2)c[nH]1)C(C)C [Example 70, Methyl {(2S)-1-[(2S)-2-{4-[4-(6-{2-[(2S)-1-{(2S)-2-[(methoxycarbonyl)amino]-3,3-dimethylbutanoyl}pyrrolidin-2-yl]-1H-imidazol-5-yl}quinoxalin-2-yl)phenyl]-1H-imidazol-2-yl}pyrrolidin-1-yl]-3-methyl-1-oxobutan-2-yl}carbamate trifluoroacetic acid salt] | 9.13 | 5.17 | > 2000 | – | –
COC(=O)NC(C(=O)N1CCC[C@H]1c1ncc(-c2ccc3nc(-c4ccc(-c5c[nH]c([C@@H]6CCCN6C(=O)[C@@H](NC(=O)OC)C(C)C)n5)cc4)cnc3c2)[nH]1)C1CCOCC1 (stereo partly drawn) [Example 71, Methyl {(2S)-1-[(2S)-2-{4-[4-(6-{2-[(2S)-1-{[(methoxycarbonyl)amino](tetrahydro-2H-pyran-4-yl)acetyl}pyrrolidin-2-yl]-1H-imidazol-5-yl}quinoxalin-2-yl)phenyl]-1H-imidazol-2-yl}pyrrolidin-1-yl]-3-methyl-1-oxobutan-2-yl}carbamate] | – | – | > 2000 | 30.7 | 23.7
COC(=O)N[C@H](C(=O)N1CCC[C@H]1c1nc(-c2ccc(-c3cnc4cc(-c5cnc([C@@H]6CCCN6C(=O)[C@@H](CCc6ccccc6)NC(=O)OC)[nH]5)ccc4n3)cc2)c[nH]1)C(C)C [Example 72, Methyl {(2R)-1-[(2S)-2-{5-[2-(4-{2-[(2S)-1-{(2S)-2-[(methoxycarbonyl)amino]-3-methylbutanoyl}pyrrolidin-2-yl]-1H-imidazol-4-yl}phenyl)quinoxalin-6-yl]-1H-imidazol-2-yl}pyrrolidin-1-yl]-1-oxo-4-phenylbutan-2-yl}carbamate trifluoroacetic acid salt] | 53.6 | 7.81 | > 2000 | – | –
COC(=O)N[C@H](C(=O)N1CCC[C@H]1c1nc(-c2ccc(-c3cnc4cc(-c5cnc([C@@H]6CCCN6C(=O)[C@H](NC(=O)OC)C(C)(C)C)[nH]5)ccc4n3)cc2)c[nH]1)C(C)C [Example 73, Methyl {(2S)-1-[(2S)-2-{4-[4-(6-{2-[(2S)-1-{(2R)-2-[(methoxycarbonyl)amino]-3,3-dimethylbutanoyl}pyrrolidin-2-yl]-1H-imidazol-5-yl}quinoxalin-2-yl)phenyl]-1H-imidazol-2-yl}pyrrolidin-1-yl]-3-methyl-1-oxobutan-2-yl}carbamate trifluoroacetic acid salt] | 13.3 | 8.11 | > 2000 | – | –
